Measured values from patent US9999218B2, “Pest control formulations and methods of making and using same” (0903608 B.C. Ltd., priority 2011, dated 2018).
Read-outs that look alike come from different tables or passages of the source.

What was measured:
adult bed bugs [1] = system: adult bed bugs
Experimental: This example illustrates the dry residual pesticidal activity of formulations comprising further pesticidal natural oils (thyme, garlic and neem oils) with acetophenone as the polar aromatic solvent. Solutions were prepared using 5.5% by weight natural oil; the percentage by weight of organic solvent indicated in Table 20 and an appropriate amount of isopropanol as a carrier diluent. Solvent was added to a final concentration of 1.5 mol/kg. Solutions were also prepared of each natural oil alone (5.5% by weight with an appropriate amount of isopropanol as a carrier diluent), and of the polar organic solvent alone (the percent by weight indicated in Table 20 with an appropriate amount of isopropanol as a carrier diluent). Treated Groups for each solution were prepared by treating filter paper, 90 mm in diameter, with 1.0 mL of solution and allowing it to air dry for four hours. A known number of adults (usually 10) were added to each treated dish, four hours after treatment. Bed bug mortality was assessed immediately after infestation and at 1-hour, 2-hour, 4-hour, 6-hour, 8-hour, 10 hour, 12-hour, and 24-hour intervals, and at 24-hour intervals thereafter until 14 days after infestation. Adult bed bugs were counted dead if they were unresponsive when stimulated.

bed bug eggs [2] = assay type: in vivo, Cimex lectularius L.
Excerpt: Immediately after infestation, and at 1-, 2-, and 3-week intervals thereafter, the numbers of hatched and unhatched eggs present in the sealed dishes were counted and compared to other Treated Groups. One egg was counted as “hatched” for every new nymph present in the petri dish when compared with the prior interval. Table 13 compares the % egg eclosion of the treated groups at the 3-week observation interval. The maximum mortality data obtained in Example 3, above, are included for comparison purposes.

adult bed bugs [3] = system: adult bed bugs; remark: listed apart in the source
Experimental: This example illustrates the dry residual pesticidal activity of formulations comprising varying pesticidal natural oils (oregano, clove and cinnamon oils) with acetophenone as the polar aromatic solvent. Solutions were prepared using 5.5% by weight natural oil; the percent by weight of acetophenone indicated in Table 19 and an appropriate amount of isopropanol as a carrier diluent. The percent by weight of solvent was at a final concentration of 1.5 mol/kg. Solutions were also prepared of each natural oil alone (5.5% by weight with an appropriate amount of isopropanol as a carrier diluent), and of acetophenone alone (the percent by weight indicated in Table 19 with an appropriate amount of isopropanol as a carrier diluent). Treated Groups for each solution were prepared by treating filter paper, 90 mm in diameter, with 1.0 mL of solution and allowing it to air dry for four hours. A known number of adults (usually 10) were added to each treated dish, four hours after treatment. Bed bug mortality was assessed immediately after infestation and at 1-hour, 2-hour, 4-hour, 6-hour, 8-hour, 10 hour, 12-hour, and 24-hour intervals, and at 24-hour intervals thereafter until 14 days after infestation. Adult bed bugs were counted dead if they were unresponsive when stimulated.

adult bed bugs [4] = assay type: in vivo
adult bed bugs [5] = details: for LT50: 2 h dried residue on filter paper; for Max Mortality: 2 h dried residue, observed until 33 days
Experimental: 1.0 mL of each solution was applied to three replicates of filter paper, 90 millimeters in diameter, contained in petri dishes (Treated Groups). Treated Groups and three replicates of an untreated Control Group were allowed to dry for two hours prior to infestation with a known number of adult bed bugs (approximately half male and half female).
Bed bug mortality was assessed immediately after infestation and at 2-, 4-, 8-, 12-, and 24-hour intervals after infestation, and daily thereafter until 33 days after infestation. Adult bed bugs were counted dead if they were unresponsive when stimulated.

bed bug eggs [6] = experiment: Prevention of egg emergence by various pesticidal natural oils (Example 11); assay type: in vivo, Cimex lectularius L.; details: for % Eclosion (3 weeks post-infest.): 2 h dried residue, five eggs
Experimental: Five bed bug eggs were added to each treated dish, two hours after treatment. Immediately after infestation, and at 1-, 2-, and 3-week intervals thereafter, the numbers of hatched and unhatched eggs present in the sealed dishes were counted and compared to other Treated Groups. One egg was counted as “hatched” for every new nymph present in the petri dish when compared with the prior interval. Table 12 compares the mean % egg eclosion of the treated groups at three weeks post-infestation. The maximum mortality data obtained in Example 2, above, are included for each formulation, for comparison purposes.

[7] = 4 h dried residue on filter paper
[8] = […] by weight oil and/or 18.25% w/w acetophenone in isopropanol, 4 h dried residue on filter paper
[9] = time of maximum mortality, 4 h dried residue on filter paper
[10] = […] neem oil + named solvent in isopropanol, 4 h dried residue, 3 weeks after infestation
[11] = […] neem oil + […] named solvent in isopropanol, 4 h dried residue
[12] = […] neem oil + […] named solvent in isopropanol, 4 h dried residue, observed until 14 days
[13] = […] oil + 5.0% acetophenone + […] sodium lauryl sulphate in water
[14] = […] oil + 5.0% ethyl lactate + […] sodium lauryl sulphate in water
[15] = […] by weight oil with 5.0% acetophenone, all observation intervals

CC(=O)c1ccccc1 [Acetophenone]
LT50 (adult bed bugs [1]; [7]): 11 h | Max Mortality (adult bed bugs [1]; [8]): 100% | Time (adult bed bugs [1]; [9]): 48 h | % Eclosion (bed bug eggs [2]; [10]): 0% | LT50 (adult bed bugs [3]; [7]): 17 h | Max Mortality (adult bed bugs [3]; [8]): 100% | Time (adult bed bugs [3]; [9]): 53 h | Time to Max Mortality (adult bed bugs [4]; [11]): 24 h | Max. Mortality (adult bed bugs [4]; [12]): 100%

C=CCc1ccc(O)c(OC)c1 [Eugenol]
LT50 (adult bed bugs [5]; [13]): 2.82 h | Max Mortality (adult bed bugs [5]; [13]): 100% | LT50 (adult bed bugs [5]; [14]): 9.91 h | Max Mortality (adult bed bugs [5]; [14]): 100% | prevention of egg eclosion (bed bug eggs [6]; [15]): some increased prevention of egg emergence | % Eclosion (3 weeks post-infest.) (bed bug eggs [6]; […] oil + 5.0% acetophenone in water): 20% | % Eclosion (3 weeks post-infest.) (bed bug eggs [6]; […] oil + 5.0% ethyl lactate in water): 40% | prevention of egg eclosion (bed bug eggs [6]; […] oil combined with 15.5% acetophenone by weight): complete prevention of egg eclosion

CCC(C)O (stereo not drawn) [Solution 2-Butanol, 2-Butanol]
% Eclosion (bed bug eggs [2]; in vivo): 100% | Max. Mortality (adult bed bugs [4]; in vivo): 20% | Time to Max Mortality (adult bed bugs [4]; in vivo): 336 h

CCCCC(=O)c1ccccc1 [Valerophenone]
% Eclosion (bed bug eggs [2]; [10]): 0% | Time to Max Mortality (adult bed bugs [4]; [11]): 24 h | Max. Mortality (adult bed bugs [4]; [12]): 100%

CC(C)=CCC/C(C)=C/CO [geraniol]
prevention of egg eclosion (bed bug eggs [6]; [15]): complete prevention of egg eclosion

Cinnamon Oil
Max Mortality (adult bed bugs [1]; in vivo): 100% | Max Mortality (adult bed bugs [3]; in vivo): 90%

Neem Oil
Max Mortality (adult bed bugs [1]; in vivo): 10%
